From US20150182667A1, “Composition with Biofilm Dispersal Agents” (Vanderbilt University, priority 2012, published 2015)
Read-outs that look alike come from different tables or passages of the source.

How the values were obtained:
[1] = system: planktonic S. aureus clinical strains (UAMS-1, 103-700); assay: MIC by CLSI broth microdilution, planktonic bacteria; type: cell-based, Staphylococcus aureus; conditions: for MIC: Staphylococcus aureus, 18 h
Description: Overnight cultures of bacterial strains were diluted to a final concentration of 5×10^5 CFU/ml in MHB-II. The resulting bacterial suspension was aliquoted (100 μL) into polystyrene round-bottom 96-well plates containing 100 μL of a 2× concentration of a previously serially diluted (1:2) antibiotic. Each antimicrobial tested was serially diluted 10 times. Following the addition of bacteria, the microtiter plate was covered and was incubated under stationary conditions at 37° C. in the presence of 1× antibiotics. […] MICs of antibiotics were determined in triplicate according to the Clinical and Laboratory Standards Institute (CLSI) broth microdilution as described by the performance standards for antimicrobial susceptibility testing (M100-S22, January 2012).

[2] = system: biofilm derived S. aureus clinical strains (UAMS-1, 103-700); assay: Biofilm susceptibility, Calgary Biofilm device (MBEC plates): MBIC and viable CFU; type: cell-based, Staphylococcus aureus; conditions: for Biofilm (MBIC) 103-700: S. aureus 103-700 48 h biofilm; for Biofilm (MBIC) 103-700 / Biofilm (MBIC) UAMS-1: 24 h challenge, * = with 5 mM D-AA; for Biofilm (MBIC) UAMS-1: S. aureus UAMS-1 48 h biofilm; for % Decrease + SD in CFU, 8 μg/mL / % Decrease + SD in CFU, 16 μg/mL / % Decrease + SD in CFU, 32 μg/mL / % Decrease + SD in CFU, 64 μg/mL: S. aureus UAMS-1 biofilm; for % Decrease + SD in CFU, 8 μg/mL: antibiotic 8 μg/mL; for % Decrease + SD in CFU, 16 μg/mL: antibiotic 16 μg/mL; for % Decrease + SD in CFU, 32 μg/mL: antibiotic 32 μg/mL; for % Decrease + SD in CFU, 64 μg/mL: antibiotic 64 μg/mL, vs non-treated biofilms; for effect of the antimicrobial against biofilms when combined with the D-AA mixture: S. aureus biofilms, both strains, bacterial CFUs within biofilms
Description: Biofilm susceptibility to antimicrobial agents in the presence and absence of D-AA was determined using the Calgary Biofilm device. Briefly, biofilms from overnight cultures were established as above on individual pegs of the minimum biofilm eradication concentration (MBEC) plates (Innovotech, Canada) with agitation for 48 h at 37° C. Following incubation, the lid with pegs was removed from the incubation plate, washed by re-suspending pegs into plate with wells containing 200 μl of 1×PBS, then placed into a 96-well challenge plate containing pre-diluted antibiotics with or without an […] for an additional 24 h at 37° C. Following challenge plates were washed, and the attached viable cells on PEGs within the biofilm were determined by plating serial dilutions onto blood agar plates (Remel). Corresponding minimal biofilm inhibitory concentration (MBIC) was also determined by measuring the optical density in individual wells of the challenge plate at 600 nm. The lowest concentration of antibiotic for which an optical density of <0.100 was recorded as the MBIC. For each antibiotic, the MBIC was determined in the presence or absence of a mixture of D-AA (D-Phenylalanine, D-Methionine, and D-Tryptophan) at an equimolar concentration of 5 mM. Three independent experiments were performed for each of these assays, with a minimum of 3 replicates.

[3] = system: S. aureus clinical isolate biofilms; assay: Biofilm dispersal and prevention, crystal violet 96-well assay (Example 1); type: cell-based, Staphylococcus aureus; conditions: 5 mM; for biofilm dispersal against panel of clinical isolates (biofilm biomass OD570): S. aureus clinical isolates, FIGS. 3A, 3C; for biofilm dispersal in pre-screening of eight D-AAs: pre-formed S. aureus biofilms, FIG. 1
Description: (§1) Biofilm formation was performed under static conditions in polystyrene 96-well plates (Corning, Inc., Corning, N.Y.). Briefly, overnight bacterial cultures were diluted to an OD600 of 0.1 in CA-MHB and 10 μL was added to individual wells filled with 190 μl of media and incubated at 37° C. for 48 h without shaking for biofilm growth. Following incubation, culture media was removed and 200 μL media containing individual D-AA at concentrations of 5 mM-1 nM was added. Plates were incubated for an additional 24 h at 37° C. After treatment, plates were gently washed with 1× phosphate buffered saline (PBS; pH 7.4) to remove non-adherent bacteria. Biofilms (i.e. attached cells) were then stained with 0.1% (w/v) crystal violet for 10 min, washed, followed by solubilization of crystal violet with 33% (v/v) acetic acid for 10 min. Biofilm biomass was determined by measuring the absorbance at 570 nm using a microtiter plate reader. For assays measuring the ability of D-AA to block biofilm formation, cells were grown under biofilm conditions as above in the presence of media containing D-AA. Three independent experiments with a minimum of 4 replicates were performed for each experimental assay. Representative images of the plates of CV stained biofilms following treatment with D-AA, prior to solubilization, were taken using a digital camera.

[4] = system: P. aeruginosa clinical isolate biofilms; assay: as above; type: cell-based, Pseudomonas aeruginosa; conditions: 5 mM; for biofilm dispersal against panel of clinical isolates (biofilm biomass OD570): P. aeruginosa clinical isolates, FIGS. 3A, 3C; for biofilm dispersal in pre-screening of eight D-AAs: pre-formed P. aeruginosa biofilms, FIG. 1
Description: as §1

[5] = system: S. aureus clinical isolates biofilms; assay: Biofilm dispersal and prevention, crystal violet assay (Example 3); type: cell-based; conditions: for dispersal of established biofilms (biofilm biomass): panel of clinical isolates of methicillin-resistant S. aureus (n=5), 5 mM, 24 h, FIGS. 8A, 8C; for biofilm dispersal in pre-screening of eight individual D-AAs: pre-formed biofilms of four clinical isolates, 0.001-50 mM, FIG. 7
Description: Like in Example 1, biofilm formation was assessed under static conditions using polystyrene 96-well plates (Corning, Inc.). Overnight bacterial cultures were diluted to an OD600 of 0.1 in TSB (˜10^7 CFU/mL), and 20 μL were added to individual wells filled with 180 μL of media and incubated at 37° C. for 48 h. To assess the biofilm dispersal activity of D-AAs, the culture medium from biofilms was removed after 48 h and 200 μL fresh medium containing either an individual D-AA or an equimolar mixture of D-AAs (1:1:1: D-Met:D-Pro:D-Trp) were added at the indicated concentrations. After treatment with D-AA(s) for 24 h, plates were gently washed with 1× phosphate buffered saline (PBS) to remove unattached cells, stained with 0.1% (w/v) crystal violet (Sigma Aldrich) for 10 min, rinsed with PBS, and then solubilized with 80% (v/v) ethanol. Biofilm biomass was determined by measuring the absorbance of solubilized stain at 570 nm using a microtiter plate reader. For assays measuring the ability of D-AA to block biofilm formation, cells were grown under biofilm conditions as above in the presence of media containing D-AAs. Representative images of the plates of CV-stained biofilms following treatment with D-AA prior to solubilization were taken using a digital camera. All assays were repeated in triplicate with a minimum of four technical replicates.

[6] = Release of D-AAs from PUR scaffolds in PBS (HPLC); type: physicochemical
Description: Also, kinetic release assays were performed on the PUR scaffolds by incorporating 10 wt % of a 1:1:1 mixture of D-Tr:D-Pro:D-Met incubated in PBS for up to 8 weeks. The medium was be sampled twice weekly and analyzed for D-AAs by HPLC.
PUR scaffolds incorporating 10 wt % of a 1:1:1 mixture of D-Met:D-Pro:D-Trp were incubated in PBS at 37° C. under static conditions for up to 8 weeks. This mixture was evaluated in vitro, in vivo and in the release kinetics tests to account for potential interactions between D-AAs during release. The medium was sampled on days 1, 2, 4, 7, 10, 14, 21, and 28 and analyzed for D-AAs by HPLC using a system equipped with a Waters 1525 binary pump and a 2487 Dual-Absorbance Detector at 200 nm. Samples of released D-AAs were eluted through an Atlantis HILIC Silica column (5 μm particle size, 4.6 mm diameter×250 mm length) using an isocratic mobile phase flowing at 1 mL/min. The mobile phase contained 2.5 mM potassium dihydrogen phosphate with pH=2.85 (A) and Acetonitrile (B) at a ratio of A25:B75. The column oven temperature was maintained at 30° C. Sample concentration was determined in reference to an external standard curve using the Waters Breeze system. Standard curves were prepared in the following concentration ranges: (1) 7.8 μg/mL to 1 mg/mL for D-Met and D-Pro and (2) […] to 100 μg/mL for D-Trp.

[7] = S. aureus 103-700, agents marked * in combination with equimolar 5 mM D-AA
[8] = S. aureus 103-700, agents marked * in combination with equimolar 5 mM D-AA, read-out: Planktonic (MIC) 103-700
[9] = S. aureus UAMS-1, agents marked * in combination with equimolar 5 mM D-Phenylalanine, D-Tryptophan, D-Methionine, read-out: Planktonic (MIC) UAMS-1

Row | SMILES | MIC [1, 8] | MIC [1, 9] | cumulative release by day 28 ([6]; PUR scaffold with 10 wt % D-AA mixture, PBS 37° C.) | burst release ([6]; day 1, PUR scaffold with 10 wt % 1:1:1 D-Met:D-Pro:D-Trp, PBS 37° C.) | b parameter of Weibull model ([6]; fit of D-AA release data) | Planktonic (MIC) 103-700 [1, 7] | Biofilm (MBIC) 103-700 [2] | Biofilm (MBIC) UAMS-1 [2] | % Decrease + SD in CFU, 8 μg/mL [2] | % Decrease + SD in CFU, 16 μg/mL [2] | % Decrease + SD in CFU, 32 μg/mL [2] | % Decrease + SD in CFU, 64 μg/mL [2] | effect of the antimicrobial against biofilms when combined with the D-AA mixture [2] | Planktonic (MIC) UAMS-1 ([1]; S. aureus UAMS-1, agents marked * in combination with equimolar 5 mM D-Phenylalanine, D-Tryptophan, D-Methionine) | biofilm dispersal against panel of clinical isolates (biofilm biomass OD570) [3] | biofilm dispersal in pre-screening of eight D-AAs [3] | biofilm dispersal against panel of clinical isolates (biofilm biomass OD570) [4] | biofilm dispersal in pre-screening of eight D-AAs [4] | dispersal of established biofilms (biofilm biomass) [5] | biofilm dispersal in pre-screening of eight individual D-AAs [5]
1 | Cc1onc(-c2ccccc2)c1C(=O)N[C@@H]1C(=O)N2[C@@H]1SC(C)(C)[C@@H]2C(=O)O [OXA, Oxacillin] | 8 µg/mL | 1 µg/mL | – | – | – | 8 µg/mL | >64 µg/mL | >64 µg/mL | – | – | – | – | – | – | – | – | – | – | – | –
2 | CN[C@H](CC(C)C)C(=O)N[C@H]1C(=O)N[C@@H](CC(N)=O)C(=O)N[C@H]2C(=O)N[C@H]3C(=O)N[C@H](C(=O)N[C@H](C(=O)O)c4cc(O)cc(O)c4-c4cc3ccc4O)[C@H](O)c3ccc(c(Cl)c3)Oc3cc2cc(c3O[C@@H]2O[C@H](CO)[C@@H](O)[C@H](O)[C@H]2O[C@H]2C[C@](C)(N)[C@H](O)[C@H](C)O2)Oc2ccc(cc2Cl)[C@H]1O [VAN, Vancomycin] | – | – | – | – | – | 1 µg/mL | >64 µg/mL | >64 µg/mL | 1.5 ± 5.7% | 15.93 ± 6.2% | 31.90 ± 7.1% | 65.97 ± 5.3% | enhanced the effect | 0.5 µg/mL | – | – | – | – | – | –
3 | N[C@H](Cc1ccccc1)C(=O)O [D-Phe, D-phenylalanine] | – | – | – | – | – | – | – | – | – | – | – | – | – | – | capable of significantly dispersing biofilm formation | relatively more effective at dispersing biofilms | capable of significantly dispersing biofilm formation | relatively more effective at dispersing biofilms | effective at dispersing established biofilms | effective at dispersing biofilms

Now from value to compound, other results behind:

Row | MIC [1, 8] | MIC [1, 9] | cumulative release by day 28 ([6]; PUR scaffold with 10 wt % D-AA mixture, PBS 37° C.) | burst release ([6]; day 1, PUR scaffold with 10 wt % 1:1:1 D-Met:D-Pro:D-Trp, PBS 37° C.) | b parameter of Weibull model ([6]; fit of D-AA release data) | SMILES | Planktonic (MIC) 103-700 [1, 7] | Biofilm (MBIC) 103-700 [2] | Biofilm (MBIC) UAMS-1 [2] | % Decrease + SD in CFU, 8 μg/mL [2] | % Decrease + SD in CFU, 16 μg/mL [2] | % Decrease + SD in CFU, 32 μg/mL [2] | % Decrease + SD in CFU, 64 μg/mL [2] | effect of the antimicrobial against biofilms when combined with the D-AA mixture [2] | Planktonic (MIC) UAMS-1 ([1]; S. aureus UAMS-1, agents marked * in combination with equimolar 5 mM D-Phenylalanine, D-Tryptophan, D-Methionine) | biofilm dispersal against panel of clinical isolates (biofilm biomass OD570) [3] | biofilm dispersal in pre-screening of eight D-AAs [3] | biofilm dispersal against panel of clinical isolates (biofilm biomass OD570) [4] | biofilm dispersal in pre-screening of eight D-AAs [4] | dispersal of established biofilms (biofilm biomass) [5] | biofilm dispersal in pre-screening of eight individual D-AAs [5]
4 | 0.5 µg/mL | 0.5 µg/mL | – | – | – | CCC[C@@H]1C[C@@H](C(=O)N[C@@H]([C@H]2O[C@H](SC)[C@H](O)[C@@H](O)[C@H]2O)[C@H](C)Cl)N(C)C1 [CLI, Clindamycin] | – | >64 µg/mL | 64 µg/mL | 1.8 ± 1.0% | 9.3 ± 1.8% | 32.86 ± 4.3% | 66.0 ± 3.4% | – | – | – | – | – | – | – | –
5 | 0.5 µg/mL | 0.5 µg/mL | – | – | – | CO[C@H]1/C=C/O[C@@]2(C)Oc3c(C)c(O)c4c(O)c(c(/C=N/N5CCN(C)CC5)c(O)c4c3C2=O)NC(=O)/C(C)=C\C=C\[C@H](C)[C@H](O)[C@@H](C)[C@@H](O)[C@@H](C)[C@H](OC(C)=O)[C@@H]1C [RIF, Rifampin] | – | 32 µg/mL | 32 µg/mL | 16.87 ± 2.9% | 34.31 ± 5.4% | 70.70 ± 4.3% | 67.36 ± 1.2% | enhanced the effect | – | – | – | – | – | – | –
6 | 16 µg/mL | 0.5 µg/mL | – | – | – | Cc1nnc(SCC2=C(C(=O)O)N3C(=O)[C@@H](NC(=O)Cn4cnnn4)[C@H]3SC2)s1 [CFZ, Cefazolin] | – | >128 µg/mL | >128 µg/mL | – | – | – | – | – | – | – | – | – | – | – | –
7 | – | – | 85% | 45% | 0.35 | O=C(O)[C@H]1CCCN1 [D-Pro, D-proline] | – | – | – | – | – | – | – | – | – | capable of significantly dispersing biofilm formation | relatively more effective at dispersing biofilms | capable of significantly dispersing biofilm formation | relatively more effective at dispersing biofilms | effective at dispersing established biofilms | effective at dispersing biofilms
